In US20100240617A1, “BICYCLIC SPHINGOSINE 1-PHOSPHATE ANALOGS” (University of Virginia Patent Foundation, priority 2007, published 2010):

Test system: lymphocytes in blood
Test: lymphopenia assay
Type: in vivo
Details: mice, 8 doses, 3 mice per dose
Experimental: Compounds (e.g., primary alcohols such as compound VIII) are dissolved in 2% hydroxypropyl beta-cyclodextrin and introduced into groups of mice by oral gavage at doses from 0.01, 1.0 and 10 mg/kg body weight. After 24 hours and 48 hours, the mice are lightly anesthetized and ca. 0.1 ml of blood is drawn from the orbital sinus. The number of lymphocytes (in thousands per microliter of blood; normal is 4-11) is determined using a Hemavet blood analyzer. There are three mice/group, the strain was mixed sv129×C57BL/6. Active compounds (e.g., compound VIII-C and compound VIII-D) are dissolved in acidified DMSO at 20 mM, and diluted 1:20 into 2% hydroxypropyl beta-cyclodextrin in water with mixing. […]

## CCCCCCCCc1ccc2c(c1)CCC(C(N)(CO)CO)C2 (single isomer, unassigned; (+)) [VIII-A, (+)-2-Amino-2-(6-octyl-1,2,3,4-tetrahydro-naphthalen-2-yl)-propane-1,3-diol]
  ED50 in the lymphopenia assay: 0.2 mg/kg

## CCCCCCCCc1ccc2c(c1)CCC(C(N)(CO)CO)C2 (single isomer, unassigned; (-)) [VIII-B, (−)-2-Amino-2-(6-octyl-1,2,3,4-tetrahydro-naphthalen-2-yl)-propane-1,3-diol]
  ED50 in the lymphopenia assay: 2 mg/kg
